In the NIST ThermoML archive (doi:10.1021/je900124n):
Where “and” joins values, the source holds several entries; their conditions need not be identical. Equal values may be shown once.

Settings: Fluid (supercritical or subcritical phases), Buoyancy - hydrostatic balance with magnetic suspension - two sinkers

CCC [propane]
Settings	mass density
340 K, 34960 kPa	514.104 kg/m3
340 K, 34961 kPa	514.106 kg/m3
340 K, 34962 kPa	514.105 kg/m3
345 K, 2494.9 kPa	58.0748 kg/m3 and 58.0791 kg/m3 and 58.0771 kg/m3
345 K, 2495 kPa	58.0845 kg/m3 and 58.0787 kg/m3
350 K, 1942.1 kPa	37.8566 kg/m3 and 37.8552 kg/m3
350 K, 1942.5 kPa	37.8654 kg/m3 and 37.8643 kg/m3
350 K, 1942.6 kPa	37.8656 kg/m3
350 K, 2573.5 kPa	58.0372 kg/m3 and 58.0366 kg/m3
350 K, 2573.6 kPa	58.041 kg/m3 and 58.0413 kg/m3 and 58.0386 kg/m3
350 K, 2844.7 kPa	70.6094 kg/m3
350 K, 2844.9 kPa	70.6242 kg/m3
350 K, 2845 kPa	70.6246 kg/m3
350 K, 2845.1 kPa	70.6278 kg/m3 and 70.6365 kg/m3
350 K, 2845.2 kPa	70.6334 kg/m3
350 K, 2845.3 kPa	70.6504 kg/m3 and 70.6463 kg/m3
350 K, 3505.9 kPa	392.661 kg/m3
350 K, 3506 kPa	392.666 kg/m3
350 K, 3506.2 kPa	392.664 kg/m3
350 K, 3506.3 kPa	392.667 kg/m3
350 K, 3506.4 kPa	392.663 kg/m3 and 392.666 kg/m3
350 K, 3506.5 kPa	392.666 kg/m3
350 K, 12070 kPa	449.428 kg/m3 [middle of 6 runs]
350 K, 12071 kPa	449.434 kg/m3 and 449.429 kg/m3
350 K, 24455 kPa	484.992 kg/m3 and 484.989 kg/m3
350 K, 24456 kPa	484.992 kg/m3
355 K, 2650.7 kPa	57.9954 kg/m3 [middle of 4 runs]
355 K, 3003.3 kPa	73.4591 kg/m3 [middle of 6 runs]
355.01 K, 3003.3 kPa	73.4598 kg/m3
359 K, 3436 kPa	96.2198 kg/m3
359 K, 3436.4 kPa	96.2687 kg/m3 and 96.2618 kg/m3 and 96.2668 kg/m3
359 K, 3436.5 kPa	96.2652 kg/m3
359.99 K, 15760 kPa	448.817 kg/m3
359.99 K, 15761 kPa	448.823 kg/m3
360 K, 303.73 kPa	4.597 kg/m3 and 4.5969 kg/m3
360 K, 303.74 kPa	4.597 kg/m3 and 4.5971 kg/m3
360 K, 539.35 kPa	8.3504 kg/m3
360 K, 539.36 kPa	8.3506 kg/m3 and 8.3504 kg/m3 and 8.3503 kg/m3
360 K, 901.24 kPa	14.4832 kg/m3 and 14.4833 kg/m3
360 K, 901.25 kPa	14.4835 kg/m3 and 14.4836 kg/m3
360 K, 1361.2 kPa	23.0769 kg/m3 and 23.078 kg/m3
360 K, 1361.3 kPa	23.0792 kg/m3
360 K, 1361.4 kPa	23.0819 kg/m3 and 23.0827 kg/m3
360 K, 2033.2 kPa	37.8651 kg/m3
360 K, 2033.3 kPa	37.8677 kg/m3
360 K, 2033.4 kPa	37.8707 kg/m3
360 K, 2033.5 kPa	37.8723 kg/m3 and 37.8724 kg/m3
360 K, 2725.4 kPa	57.912 kg/m3
360 K, 2725.5 kPa	57.9157 kg/m3
360 K, 2725.6 kPa	57.9165 kg/m3
360 K, 3108.3 kPa	73.4362 kg/m3 [middle of 6 runs]
360 K, 3108.4 kPa	73.4363 kg/m3
360 K, 3467.9 kPa	96.3808 kg/m3 and 96.381 kg/m3
360 K, 3468 kPa	96.3801 kg/m3 and 96.3793 kg/m3 and 96.3804 kg/m3
360 K, 3730.9 kPa	352.636 kg/m3 and 352.637 kg/m3
360 K, 3731 kPa	352.635 kg/m3
360 K, 3731.1 kPa	352.636 kg/m3
360 K, 5948.1 kPa	392.145 kg/m3
360 K, 5948.8 kPa	392.137 kg/m3
360 K, 5949.1 kPa	392.137 kg/m3
360 K, 5949.4 kPa	392.137 kg/m3 and 392.14 kg/m3 and 392.139 kg/m3
360 K, 5949.5 kPa	392.138 kg/m3
360 K, 5949.7 kPa	392.139 kg/m3
360 K, 7930.9 kPa	409.823 kg/m3
360 K, 7931 kPa	409.821 kg/m3
360 K, 7931.2 kPa	409.824 kg/m3
360 K, 7931.3 kPa	409.824 kg/m3
360 K, 11923 kPa	433.101 kg/m3 [middle of 5 runs]
360 K, 15761 kPa	448.822 kg/m3 and 448.82 kg/m3 and 448.823 kg/m3
360 K, 15762 kPa	448.821 kg/m3 and 448.822 kg/m3
360 K, 16074 kPa	449.912 kg/m3
360 K, 16075 kPa	449.912 kg/m3 and 449.911 kg/m3
360 K, 19910 kPa	462.101 kg/m3 and 462.102 kg/m3
360 K, 23890 kPa	472.673 kg/m3 and 472.674 kg/m3 and 472.672 kg/m3
360 K, 23891 kPa	472.674 kg/m3
360 K, 30126 kPa	486.462 kg/m3
360 K, 30127 kPa	486.462 kg/m3
360 K, 35259 kPa	496.072 kg/m3
360 K, 35260 kPa	496.073 kg/m3 and 496.072 kg/m3
360 K, 35262 kPa	496.074 kg/m3
360.01 K, 901.24 kPa	14.4833 kg/m3
360.01 K, 3108.3 kPa	73.4355 kg/m3
365 K, 3675.6 kPa	100.804 kg/m3 and 100.799 kg/m3 and 100.803 kg/m3
365 K, 3675.7 kPa	100.805 kg/m3
365 K, 4200.9 kPa	337.532 kg/m3 and 337.539 kg/m3 and 337.537 kg/m3
365 K, 4201.1 kPa	337.536 kg/m3
365 K, 4201.2 kPa	337.534 kg/m3
365 K, 4201.3 kPa	337.537 kg/m3 and 337.54 kg/m3
365 K, 4201.5 kPa	337.541 kg/m3
369 K, 4143.7 kPa	146.446 kg/m3 [middle of 6 runs]
369 K, 4143.8 kPa	146.438 kg/m3 and 146.437 kg/m3
369 K, 4197.8 kPa	281.2 kg/m3 and 281.206 kg/m3
369 K, 4197.9 kPa	281.145 kg/m3
369 K, 4198 kPa	281.222 kg/m3 [middle of 4 runs]
369 K, 4198.1 kPa	281.241 kg/m3
369.82 K, 4245.5 kPa	199.588 kg/m3 and 199.89 kg/m3 and 199.647 kg/m3
369.82 K, 4245.6 kPa	199.834 kg/m3
369.82 K, 4246.6 kPa	245.595 kg/m3
369.82 K, 4985.6 kPa	337.371 kg/m3
369.82 K, 19374 kPa	448.259 kg/m3
369.82 K, 19375 kPa	448.259 kg/m3 [middle of 7 runs]
369.83 K, 3309.2 kPa	73.3627 kg/m3
369.83 K, 3309.3 kPa	73.3633 kg/m3 and 73.3643 kg/m3 and 73.3637 kg/m3
369.83 K, 3309.4 kPa	73.3693 kg/m3 [middle of 4 runs]
369.83 K, 4186.1 kPa	146.569 kg/m3
369.83 K, 4186.2 kPa	146.57 kg/m3 [middle of 6 runs]
369.83 K, 4186.3 kPa	146.572 kg/m3
369.83 K, 4245.5 kPa	199.889 kg/m3
369.83 K, 4245.6 kPa	200.17 kg/m3 and 199.849 kg/m3 and 199.989 kg/m3
369.83 K, 4246.6 kPa	245.029 kg/m3 and 245.142 kg/m3
369.83 K, 4246.7 kPa	245.511 kg/m3 and 245.436 kg/m3
369.83 K, 4246.8 kPa	245.25 kg/m3 and 245.225 kg/m3
369.83 K, 4246.9 kPa	245.368 kg/m3
369.83 K, 4284.4 kPa	281.216 kg/m3
369.83 K, 4284.5 kPa	281.229 kg/m3 and 281.217 kg/m3
